US20060111342A1, “Insecticidal tricyclic derivatives” (priority 2002, published 2006)

Experiments:
[1] = test system: cotton aphid (Aphis gossypii); test: Cotton aphid test in the same manner, more definitive percent mortality at selected rates and exposure times (Table 3); format: in vivo; conditions: for Percent Mortality of Cotton Aphid on Cotton Plants: 72 hours exposure
Protocol: (§1) The compounds of formula I useful in the present invention were tested for insecticidal activity by observing mortality in a population of cotton aphid (Aphis gossypii) on treated cotton plants caused by a test compound, when compared to like populations of cotton aphid on untreated plants. These tests were conducted in the following manner:
For each rate of application of test compound, two seven-to-ten days old cotton seedlings (Gossypium hirsutium) grown in 7.6 cm diameter pots were selected for the test. Each test plant was infested with about 120 adult cotton aphids by placing onto each test plant cuttings of leaves from cotton plants grown in a cotton aphid colony. Once infested, the test plants were maintained for up to about 12 hours to allow complete translocation of the aphids onto the test plant. A solution comprising 1000 part per million (ppm) of each test compound was prepared by dissolving 10 milligrams of the test compound in 1 mL of acetone. Each solution was then diluted with 9 mL of a solution of 0.03 mL of polyoxyethylene(10) isooctylphenyl ether in 100 mL of water. About 2.5 mL of solution of each test compound was needed to spray each replicate of test plant (5 mL total for each test compound). If needed, the solution of 1000 ppm of test compound was serially diluted with a solution of 10% acetone and 300 ppm of polyoxyethylene(10) isooctylphenyl ether in water to provide solutions of each test compound for lower rates of application, for example, 300 ppm, 100 ppm, 30 ppm, or 10 ppm. Each replicate of test plant was sprayed with the solutions of test compound until run-off on both the upper and lower surfaces of the leaves. All the test plants were sprayed using a DeVilbus Atomizer Model 152 (Sunrise Medical, Carlsbad, Calif.) at a pressure of about 0.63-0.74 kilogram per square centimeter from a distance of about 30.5 centimeters from the test plants. For comparison purposes, a solution of a standard, such as amitraz or demethylchlordimeform (DCDM), prepared in a manner analogous to that set forth above, as well as a solution of 10% acetone and 300 ppm of polyoxyethylene(10) isooctylphenyl ether in water containing no test compound were also sprayed onto test plants. Upon completion of spraying the solutions of test compound, the solution of standard, and the solution containing no test compound, the plants were allowed to dry. […] After this time, each plant was assessed for percent mortality caused by the test compound when compared to the population of aphids that was infested onto the test plants prior to treatment with test compound. […] If there was 75% mortality or greater of the cotton aphid, a test compound was designated as being more insecticidally active (A).
In a test conducted in the same manner as set forth above, certain compounds of formula I were tested to determine a more definitive percent mortality of cotton aphid.

[2] = test system: cotton aphid (Aphis gossypii); test: Cotton aphid mortality on sprayed cotton plants, assessed after 24 hours (Table 2); format: in vivo; conditions: read-out: Mortality of Cotton Aphid On Cotton Plants: More Than 75% Mortality (A)
Protocol: as §1
For each rate of application of test compound, two seven-to-ten days old cotton seedlings (Gossypium hirsutium) grown in 7.6 cm diameter pots were selected for the test. Each test plant was infested with about 120 adult cotton aphids by placing onto each test plant cuttings of leaves from cotton plants grown in a cotton aphid colony. Once infested, the test plants were maintained for up to about 12 hours to allow complete translocation of the aphids onto the test plant. A solution comprising 1000 part per million (ppm) of each test compound was prepared by dissolving 10 milligrams of the test compound in 1 mL of acetone. Each solution was then diluted with 9 mL of a solution of 0.03 mL of polyoxyethylene(10) isooctylphenyl ether in 100 mL of water. […] After this time, each plant was assessed for percent mortality caused by the test compound when compared to the population of aphids that was infested onto the test plants prior to treatment with test compound. […]

tobacco hornworm = conditions: in vivo; cited from earlier work

SMILES | Percent Mortality of Cotton Aphid on Cotton Plants ([1]; 500 ppm) [%] | anti-feeding activity against tobacco hornworm (tobacco hornworm) | other results
CN1CCC(=C2c3ccccc3Oc3ccccc32)CC1 [Compound 8, 9-(1-methyl-4-piperidylidene)xanthene] | – | – | mortality at 100 ppm ([1]; Aphis gossypii, 96 h, read-out: Percent Mortality of Cotton Aphid on Cotton Plants): 88%; mortality at 100 ppm [2]: > 75%
COc1ccc2c(c1)N(CCCN(C)C)c1ccccc1S2 [Compound 205] | 40 | – | –
CN1CCN(CCCN2c3ccccc3Sc3ccc(C(F)(F)F)cc32)CC1.Cl.Cl [Compound 207] | – | – | Percent Mortality of Cotton Aphid on Cotton Plants ([1]; 1000 ppm): 25%
Cl.Cl.OCCN1CCN(CCCN2c3ccccc3Sc3ccc(C(F)(F)F)cc32)CC1 [Compound 208] | 43 | – | –
CNCCCN1c2ccccc2CCc2ccccc21 [Desipramine, desipramine] | – | anti-feeding activity | –
CN(C)CCC=C1c2ccccc2CCc2ccccc21 [amitriptyline] | – | anti-feeding activity | –
